Source: publication PMC9394284, “Discovery of Novel Dual Adenosine A2A and A1 Receptor Antagonists with 1H-Pyrazolo[3,4-d]pyrimidin-6-amine Core Scaffold as Anti-Parkinson’s Disease Agents” (Pharmaceuticals, 2022)
Read-outs that look alike come from different tables or passages of the source.

Experiments:
[1] = pharmacokinetics and bioavailability in mouse plasma; type: in vivo, Crl:CD-1 mice
Method: (§1) Male Crl:CD-1 mice of 9~10 weeks of age were purchased from Charles River Laboratories, USA and maintained at standard food and water ad libitum in temperature-controlled room with 12 h on-off light cycle before the experiment. All procedures described were reviewed and approved by the Institutional Animal Care and Use Committee (IACUC) at Frontage Laboratories Inc. For PO dosing, mice were given 11o dissolved in DMSO: PEG400 (1:3, v:v) via gavage. For IV dosing, 11o solubilized in DMSO: PEG400: saline (1:3:6, v:v) were injected into tail veins at dose volume of 1 mL/kg. For IN dosing, 11o solubilized in DMSO and 25 μL of the appropriate dosing solution was placed near the nares to allow animal to inhale the dose. Three mice were sampled from each group for each blood and brain collection time point. Time points are 0.5, 1, 2, 4, 8, 24 h for PO and IN dosing and 0.083, 1, 2, 4, 8 and 24 h for IV dosing. Mice were euthanized by terminal retro-orbital blood collection under isoflurane anesthesia, followed by opening of the thoracic cavity per facility SOPs. A target volume of 1 mL was collected into tubes containing K3EDTA anti-coagulant, inverted several times and held on wet ice until centrifuged under refrigeration (set at 5 °C for 10 min at 2000× g). Resulting plasma were stored in a freezer set to maintain −70 °C until analyzed for 11o concentration. Brain was removed from each animal and weighed following termination, snap frozen and stored until later use. Plasma and brain PK analysis was conducted using WinNolin Version 6.2.1 (Pharsight, Mountain View, CA, USA), operating as a validated software system. Noncompartmental analysis was conducted using the extravascular administration model for oral dosing and the IV bolus model for IV dosing. The peak plasma and brain concentration, time to achieve peak plasma concentration, half-life, and area under the plasma concentration-time curve (Cmax, Tmax, T1/2 and AUC) were calculated from mean plasma concentrations for each sampling time/dose group for 11o. Nominal blood collection times were used for calculation of PK parameters. Dose proportionality was assessed, and bioavailability was calculated for PO dosing.

[2] = pharmacokinetics and brain/plasma ratio in mouse brain; type: in vivo, Crl:CD-1 mice; conditions: male; for AUC(0-t) / Cmax / Tmax / half-life: mouse brain
Method: as §1

[3] = male, Crl:CD-1, inhaled or intranasal, mouse plasma, 10 mg/kg IN
[4] = male, Crl:CD-1, mouse plasma, 1 mg/kg IV
[5] = male, Crl:CD-1, mouse plasma, 1 mg/kg PO
[6] = male, Crl:CD-1, mouse plasma, 3 mg/kg PO
[7] = male, Crl:CD-1, mouse plasma, 10 mg/kg PO
[8] = Crl:CD-1, inhaled or intranasal, 1 mg/kg IN
[9] = Crl:CD-1, inhaled or intranasal, 3 mg/kg IN
[10] = Crl:CD-1, inhaled or intranasal, 10 mg/kg IN

In the case of Cc1cc(Cn2ncc3c(-c4cccc(C#N)c4F)nc(N)nc32)ccc1N [11o, 3-(6-Amino-1-(4-amino-3-methylbenzyl)-1H-pyrazolo[3,4-d]pyrimidin-4-yl)-2-fluorobenzonitrile], the Tmax ([1]; male, Crl:CD-1, inhaled or intranasal, mouse plasma, 1 mg/kg IN) was 0.5 h, the Tmax ([1]; male, Crl:CD-1, inhaled or intranasal, mouse plasma, 3 mg/kg IN) was 0.5 h and the Tmax [1, 3] was 0.5 h. For the same molecule, the half-life [1, 3] was 7.4 h, the AUC(0-t) ([1]; male, Crl:CD-1, mouse, plasma, inhaled or intranasal, 1 mg/kg, mouse plasma, 1 mg/kg IN) was 74.9 ng·h/mL and the Cmax ([1]; male, Crl:CD-1, mouse, plasma, inhaled or intranasal, 1 mg/kg, mouse plasma, 1 mg/kg IN, read-out: Cmax) was 23.3 ng/mL. It also gave an AUC(0-t) ([1]; male, Crl:CD-1, mouse, plasma, inhaled or intranasal, 3 mg/kg, mouse plasma, 3 mg/kg IN) of 183 ng·h/mL, a Cmax ([1]; male, Crl:CD-1, mouse, plasma, inhaled or intranasal, 3 mg/kg, mouse plasma, 3 mg/kg IN, read-out: Cmax) of 53.9 ng/mL and an AUC(0-t) ([1]; male, Crl:CD-1, mouse, plasma, inhaled or intranasal, 10 mg/kg, mouse plasma, 10 mg/kg IN) of 444 ng·h/mL. It also gave a Cmax ([1]; male, Crl:CD-1, mouse, plasma, inhaled or intranasal, 10 mg/kg, mouse plasma, 10 mg/kg IN, read-out: Cmax) of 88.5 ng/mL, an AUC(0-t) ([1]; male, Crl:CD-1, mouse, plasma, iv, 1 mg/kg, mouse plasma, 1 mg/kg IV) of 332 ng·h/mL and a Cmax ([1]; male, Crl:CD-1, mouse, plasma, iv, 1 mg/kg, mouse plasma, 1 mg/kg IV, read-out: Cmax) of 459 ng/mL. It also gave an AUC(0-t) ([1]; male, Crl:CD-1, mouse, plasma, po, 1 mg/kg, mouse plasma, 1 mg/kg PO) of 176 ng·h/mL, a Cmax ([1]; male, Crl:CD-1, mouse, plasma, po, 1 mg/kg, mouse plasma, 1 mg/kg PO, read-out: Cmax) of 36.8 ng/mL and an AUC(0-t) ([1]; male, Crl:CD-1, mouse, plasma, po, 3 mg/kg, mouse plasma, 3 mg/kg PO) of 577 ng·h/mL. It also gave a Cmax ([1]; male, Crl:CD-1, mouse, plasma, po, 3 mg/kg, mouse plasma, 3 mg/kg PO, read-out: Cmax) of 81.4 ng/mL, an AUC(0-t) ([1]; male, Crl:CD-1, mouse, plasma, po, 10 mg/kg, mouse plasma, 10 mg/kg PO) of 2250 ng·h/mL and a Cmax ([1]; male, Crl:CD-1, mouse, plasma, po, 10 mg/kg, mouse plasma, 10 mg/kg PO, read-out: Cmax) of 367 ng/mL. It also gave a bioavailability ([1]; male, Crl:CD-1, plasma, other: intranasal (IN), placed near the nares, mouse, IN, 1, 3 and 10 mg/kg, depending on the dose, read-out: Bioavailability after IN administration) of 13.4 to 22.6%, a Tmax [1, 4] of 0.083 h and a half-life [1, 4] of 3.95 h. The Tmax [1, 5] was 2 h, the half-life [1, 5] was 4.38 h and the Tmax [1, 6] was 2 h. It also gave a half-life [1, 6] of 3.66 h, a Tmax [1, 7] of 2 h and a half-life [1, 7] of 5.69 h. It also gave a BA ([1]; mouse plasma, 1 mg/kg IN, relative to AUClast of 1 mg/kg IV) of 22.6%, a BA ([1]; mouse plasma, 1 mg/kg IV (reference for the calculation)) of 100% and a BA ([1]; mouse plasma, 1 mg/kg PO, relative to AUClast of 1 mg/kg IV, 1 mg/kg) of 53%. It also gave a BA ([1]; mouse plasma, 3 mg/kg IN, relative to AUClast of 1 mg/kg IV) of 18.4%, a Cmax ([1]; mouse plasma, 3 mg/kg PO, 3 mg/kg) of 81.3 ng/mL and a BA ([1]; mouse plasma, 3 mg/kg PO, relative to AUClast of 1 mg/kg IV) of 57.9%. It also gave a BA ([1]; mouse plasma, 10 mg/kg IN, relative to AUClast of 1 mg/kg IV) of 13.4%, an AUClast ([1]; mouse plasma, 10 mg/kg PO, 10 mg/kg) of 2249 ng·h/mL and a BA ([1]; mouse plasma, 10 mg/kg PO, relative to AUClast of 1 mg/kg IV) of 67.7%. It also gave a Kp ([2]; Crl:CD-1, brain/plasma, other: intranasal (IN), placed near the nares, mouse, IN 1, 3 and 10 mg/kg, read-out: B/P ratio, IN dosing groups) of 0.0698 to 0.183, a Kp ([2]; Crl:CD-1, brain/plasma, mouse, PO 1, 3 and 10 mg/kg, read-out: B/P ratio, PO dosing groups) of 0.0242 to 0.167 and an AUC(0-t) [2, 8] of 5.23 ng·h/mL. For the same molecule, the Cmax [2, 8] was 9.63 ng/mL, the Tmax [2, 8] was 0.5 h and the AUC(0-t) [2, 9] was 14.2 ng·h/mL. For the same molecule, the Cmax [2, 9] was 15.9 ng/mL, the Tmax [2, 9] was 0.5 h and the AUC(0-t) [2, 10] was 81.3 ng·h/mL. For the same molecule, the Cmax [2, 10] was 38.2 ng/mL, the Tmax [2, 10] was 0.5 h and the half-life [2, 10] was 3.74 h. The Kp ([2]; Crl:CD-1, mouse, other: IN (intranasal, placed near the nares to inhale), 10 mg/kg IN, Brain AUClast/Plasma AUClast, read-out: B/P Ratio) was 0.183, the Kp ([2]; Crl:CD-1, mouse, other: IN dosing, solution placed near the nares to inhale, 1 mg/kg IN, Brain AUClast/Plasma AUClast, read-out: B/P Ratio) was 0.0698 and the Kp ([2]; Crl:CD-1, mouse, other: IN dosing, solution placed near the nares to inhale, 3 mg/kg IN, Brain AUClast/Plasma AUClast, read-out: B/P Ratio) was 0.0776. The Kp ([2]; Crl:CD-1, mouse, 1 mg/kg IV, Brain AUClast/Plasma AUClast, read-out: B/P Ratio) was 0.741, the Kp ([2]; Crl:CD-1, mouse, 1 mg/kg PO, Brain AUClast/Plasma AUClast, read-out: B/P Ratio) was 0.0242 and the Kp ([2]; Crl:CD-1, mouse, 3 mg/kg PO, Brain AUClast/Plasma AUClast, read-out: B/P Ratio) was 0.0977. It also gave a Kp ([2]; Crl:CD-1, mouse, 10 mg/kg PO, Brain AUClast/Plasma AUClast, read-out: B/P Ratio) of 0.167, an AUC(0-t) ([2]; Crl:CD-1, 1 mg/kg IV) of 246 ng·h/mL and a Cmax ([2]; Crl:CD-1, 1 mg/kg IV) of 410 ng/mL. The Tmax ([2]; Crl:CD-1, 1 mg/kg IV) was 0.083 h, the AUC(0-t) ([2]; Crl:CD-1, 1 mg/kg PO) was 4.26 ng·h/mL and the Cmax ([2]; Crl:CD-1, 1 mg/kg PO) was 5.58 ng/mL. For the same molecule, the Tmax ([2]; Crl:CD-1, 1 mg/kg PO) was 2 h, the AUC(0-t) ([2]; Crl:CD-1, 3 mg/kg PO) was 56.4 ng·h/mL and the Cmax ([2]; Crl:CD-1, 3 mg/kg PO) was 12.8 ng/mL. It also gave a Tmax ([2]; Crl:CD-1, 3 mg/kg PO) of 0.5 h, a half-life ([2]; Crl:CD-1, 3 mg/kg PO) of 3.23 h and an AUC(0-t) ([2]; Crl:CD-1, 10 mg/kg PO) of 375 ng·h/mL. It also gave a Cmax ([2]; Crl:CD-1, 10 mg/kg PO) of 48.1 ng/mL, a Tmax ([2]; Crl:CD-1, 10 mg/kg PO) of 2 h and a half-life ([2]; Crl:CD-1, 10 mg/kg PO) of 7.71 h.
